This is an account of results in patent US8859549B2, “Potassium channel modulators” (AbbVie, Inc., priority 2011, dated 2014).

In the assay the target is T1, KCNQ 2/3 channels (Homo sapiens, UniProt O43525+O43526).
T1 construct: expressed in transfected cells; host or cells: HEK293
Description: KCNQ 2/3 channel activation, thallium flux FLIPR assay (BTC-AM dye). It is filed as cell-based. Conditions: for Emax: HEK293, maximum response relative to the response of 10 μM retigabine (set at 100%), HEK293 KCNQ2/KCNQ3 cells, read-out: % MAX; for EC50: HEK293 cells stably expressing human KCNQ2 and KCNQ3 subunits, thallium-induced fluorescence, 4 min compound incubation. How it is done: The following example describes the assay that can be used to identify compounds that activate KCNQ 2/3 channels.
HEK293 cells stably expressing human KCNQ2 and KCNQ3 subunits were seeded in 96-well, black-walled, clear-bottomed, poly-D-lysine coated plates (BD Biosciences, Bedford, Mass.) at a density of 1×10^5 cells per well 24 hours before the assay. On the assay day, BTC-AM dye (Invitrogen, Carlsbad, Calif.) was loaded into the cells by replacing the cell culture medium with 55 μL/well of 3 μg/mL dye in DPBS. Dye loading was allowed to proceed for 2 hours at room temperature and then cells were washed twice with 50 μL/well of assay buffer (in mM: 10 HEPES pH 7.3, 5 glucose, 140 Na-gluconate, 2.5 K-gluconate, 3.6 Ca-gluconate, 2 MgSO4, 0.1 Ouabain) to remove unloaded dye. Cells were incubated in 50 μL of assay buffer before loading onto a FLIPR system (Molecular Devices, Sunnyvale, Calif.). Various concentrations of compounds to be assayed were added to the cells in 50 μL of assay buffer and incubated for 4 minutes. The fluorescence signal was initiated by adding 100 μL of assay buffer containing 6 mM TlNO3 and 10 mM K2SO4. Fluors were excited using the 488-nm line of an argon laser and emission was filtered using a 540±30 nm bandpass filter. Fluorescent signals were recorded for 3 minutes. Sums of the responses over basal responses were plotted versus concentrations of test compounds to obtain an EC50 value. The maximum response for each test compound was determined relative to the response produced by 10 μM retigabine. The maximum response of retigabine at 10 μM was set at 100%.

`O=C(CC1CCOC1)Nn1nc(N2CCOCC2)c2ccccc2c1=O` (stereo not drawn) [Example 66, N-[4-(morpholin-4-yl)-1-oxophthalazin-2(1H)-yl]-2-(tetrahydrofuran-3-yl)acetamide]: the Emax worked out at 3.89%.
Regarding `O=C(Cc1ccc(Cl)cc1)Nn1nc(Cc2ccc(Cl)nc2)c2ccccc2c1=O` [Example 32, 2-(4-chlorophenyl)-N-{4-[(6-chloropyridin-3-yl)methyl]-1-oxophthalazin-2(1H)-yl}acetamide], the Emax is 46.2% and the EC50 (commonly the concentration needed to bring the measured effect to its halfway point) was 148 nM.
For the compound `CC(C)(C)NC(=O)c1nn(NC(=O)CC2CC3CCC2C3)c(=O)c2ccccc12` (racemic) [Example 99, (±)-3-{[(exo)-bicyclo[2.2.1]hept-2-ylacetyl]amino}-N-tert-butyl-4-oxo-3,4-dihydrophthalazine-1-carboxamide], the Emax came to 177% and the EC50 amounted to 206 nM.
Turning to `O=C(Cc1cc(F)cc(F)c1)Nn1nc(Cc2ccc(Cl)nc2)c2ccccc2c1=O` [Example 31, N-{4-[(6-chloropyridin-3-yl)methyl]-1-oxophthalazin-2(1H)-yl}-2-(3,5-difluorophenyl)acetamide], the Emax came to 72.1% and the EC50 stood at 330 nM.
The like results for `O=C(Cc1cccc(C(F)(F)F)c1)Nn1nc(N2CCOCC2)c2ccccc2c1=O` [Example 160, N-[4-(morpholin-4-yl)-1-oxophthalazin-2(1H)-yl]-2-[3-(trifluoromethyl)phenyl]acetamide] were, in that order, 62.1% and 9680 nM.
With `Nc1ccc(S(=O)(=O)c2nn(NC(=O)Cc3ccc(Cl)cc3)c(=O)c3ccccc23)cc1` [Example 115, N-{4-[(4-aminophenyl)sulfonyl]-1-oxophthalazin-2(1H)-yl}-2-(4-chlorophenyl)acetamide], the Emax is 42.2%.
Regarding `O=C(Cc1ccccc1)Nn1nc(N2CCOCC2)c2ccccc2c1=O` [Example 111, N-[4-(morpholin-4-yl)-1-oxophthalazin-2(1H)-yl]-2-phenylacetamide], the Emax is 70.7% and the EC50 is 17300 nM.
Consider `COc1ccc(CC(=O)Nn2nc(N3CCOCC3)c3ccccc3c2=O)cc1` [Example 147, 2-(4-methoxyphenyl)-N-[4-(morpholin-4-yl)-1-oxophthalazin-2(1H)-yl]acetamide], for which the Emax is 18.7%.
Still for that read-out and setting: the result for `COc1ccc(CC(=O)Nn2nc(N3CCOCC3)c3ccccc3c2=O)c(OC)c1` [Example 170, 2-(2,4-dimethoxyphenyl)-N-[4-(morpholin-4-yl)-1-oxophthalazin-2(1H)-yl]acetamide] reads 34.2%.
As to `CC(C)(C)OC(=O)NCc1nn(NC(=O)CC2CCC(F)(F)CC2)c(=O)c2ccccc12` [Example 124, tert-butyl[(3-{[(4,4-difluorocyclohexyl)acetyl]amino}-4-oxo-3,4-dihydrophthalazin-1-yl)methyl]carbamate], the Emax came out at 72.5% and the EC50 was 8050 nM.
Regarding `COc1ccccc1CC(=O)Nn1nc(N2CCOCC2)c2ccccc2c1=O` [Example 145, 2-(2-methoxyphenyl)-N-[4-(morpholin-4-yl)-1-oxophthalazin-2(1H)-yl]acetamide], the Emax amounted to 1.73%.
Turning to `O=C(Cc1ccc2ccccc2c1)Nn1nc(N2CCOCC2)c2ccccc2c1=O` [Example 166, N-[4-(morpholin-4-yl)-1-oxophthalazin-2(1H)-yl]-2-(naphthalen-2-yl)acetamide], the Emax stood at 15.6%.
For `CS(=O)(=O)c1ccc(CC(=O)Nn2nc(S(=O)(=O)c3ccccc3)c3ccccc3c2=O)cc1` [Example 189, 2-[4-(methylsulfonyl)phenyl]-N-[1-oxo-4-(phenylsulfonyl)phthalazin-2(1H)-yl]acetamide], the Emax was determined as 37%.
On the same count and under the same terms, the result for `O=C(Cc1ccccc1Cl)Nn1nc(N2CCOCC2)c2ccccc2c1=O` [Example 151, 2-(2-chlorophenyl)-N-[4-(morpholin-4-yl)-1-oxophthalazin-2(1H)-yl]acetamide] reads 7.89%.
With `CN(Cc1ccccc1)c1nn(NC(=O)CC2CC3CCC2C3)c(=O)c2ccccc12` (racemic) [Example 37, (±)-N-{4-[benzyl(methyl)amino]-1-oxophthalazin-2(1H)-yl}-2-[(exo)-bicyclo[2.2.1]hept-2-yl]acetamide], the Emax is 160% and the EC50 turned out to be 42.3 nM.
In the case of `O=C(CC1(O)CCCCC1)Nn1nc(-c2ccnc(Cl)c2)c2ccccc2c1=O` [Example 71, N-[4-(2-chloropyridin-4-yl)-1-oxophthalazin-2(1H)-yl]-2-(1-hydroxycyclohexyl)acetamide], the Emax was determined as 34%.
Consider `O=C(Cc1ccc(Cl)cc1)Nn1nc(S(=O)(=O)Cc2ccccc2)c2ccccc2c1=O` [Example 216, N-[4-(benzylsulfonyl)-1-oxophthalazin-2(1H)-yl]-2-(4-chlorophenyl)acetamide], for which the Emax was found to be 67.1% and the EC50 is 1840 nM.
As for `NC(=O)c1cc(-c2nn(NC(=O)CC3CC4CCC3C4)c(=O)c3ccccc23)ccn1` (racemic) [Example 72, (±)-4-(3-{[(exo)-bicyclo[2.2.1]hept-2-ylacetyl]amino}-4-oxo-3,4-dihydrophthalazin-1-yl)pyridine-2-carboxamide], the Emax came out at 13.7%.
For `N#Cc1ccc(S(=O)(=O)c2nn(NC(=O)C[C@H]3C[C@@H]4CC[C@H]3C4)c(=O)c3ccccc23)cc1` (racemic) [Example 219, (±)-2-[(exo)-bicyclo[2.2.1]hept-2-yl]-N-{4-[(4-cyanophenyl)sulfonyl]-1-oxophthalazin-2(1H)-yl}acetamide], the Emax came to 145% and the EC50 stood at 14.6 nM.
Take `COc1ccc(CC(=O)Nn2nc(N3CCOCC3)c3ccccc3c2=O)cc1OC` [Example 172, 2-(3,4-dimethoxyphenyl)-N-[4-(morpholin-4-yl)-1-oxophthalazin-2(1H)-yl]acetamide]: the Emax is 51.7%.
As for `Cc1cc(-c2nn(NC(=O)CC3CC4CCC3C4)c(=O)c3ccccc23)ccn1` (racemic) [Example 50, (±)-2-[(exo)-bicyclo[2.2.1]hept-2-yl]-N-[4-(2-methylpyridin-4-yl)-1-oxophthalazin-2(1H)-yl]acetamide], the Emax turned out to be 151% and the EC50 was 1130 nM.
For `O=C(Cc1cc(F)cc(F)c1)Nn1nc(N2CCCCC2)c2ccccc2c1=O` [Example 22, 2-(3,5-difluorophenyl)-N-[1-oxo-4-(piperidin-1-yl)phthalazin-2(1H)-yl]acetamide], the Emax was 134% and the EC50 came out at 87.5 nM.
The like results for `O=C(Cc1ccc(Cl)cc1)Nn1nc(CNC(=O)OCC(F)(F)F)c2ccccc2c1=O` [Example 129, 2,2,2-trifluoroethyl[(3-{[(4-chlorophenyl)acetyl]amino}-4-oxo-3,4-dihydrophthalazin-1-yl)methyl]carbamate] were, in that order, 33.7% and 1280 nM.
For the compound `O=C(CC1CC2CCC1C2)Nn1nc(Cc2ccc(Cl)nc2)c2ccccc2c1=O` (racemic) [Example 30, (±)-2-[(exo)-bicyclo[2.2.1]hept-2-yl]-N-{4-[(6-chloropyridin-3-yl)methyl]-1-oxophthalazin-2(1H)-yl}acetamide], the Emax was found to be 122% and the EC50 came out at 58.4 nM.
On to `O=C(Cc1cccc(F)c1)Nn1nc(N2CCOCC2)c2ccccc2c1=O` [Example 149, 2-(3-fluorophenyl)-N-[4-(morpholin-4-yl)-1-oxophthalazin-2(1H)-yl]acetamide], for which the Emax came out at 82.7% and the midpoint of the response, the EC50, lay at 5280 nM.
The corresponding values for `O=C(CC1CC2CCC1C2)Nn1nc(S(=O)(=O)c2ccc(Br)cc2)c2ccccc2c1=O` (racemic) [Example 204, (±)-2-[(exo)-bicyclo[2.2.1]hept-2-yl]-N-{4-[(4-bromophenyl)sulfonyl]-1-oxophthalazin-2(1H)-yl}acetamide] are 164% and 24 nM.
The like results for `O=C(Cc1ccc(Br)cc1)Nn1nc(N2CCOCC2)c2ccccc2c1=O` [Example 155, 2-(4-bromophenyl)-N-[4-(morpholin-4-yl)-1-oxophthalazin-2(1H)-yl]acetamide] were, in that order, 110% and 2560 nM.
Regarding `O=C(Cc1ccc(C(F)(F)F)cc1)Nn1nc(N2CCOCC2)c2ccccc2c1=O` [Example 161, N-[4-(morpholin-4-yl)-1-oxophthalazin-2(1H)-yl]-2-[4-(trifluoromethyl)phenyl]acetamide], the Emax was determined as 93%.
`O=C(Cc1ccc(Cl)cc1)Nn1nc(N2CCCC2)c2ccccc2c1=O` [Example 21, 2-(4-chlorophenyl)-N-[1-oxo-4-(pyrrolidin-1-yl)phthalazin-2(1H)-yl]acetamide]: the Emax is 136% and the EC50 was determined as 198 nM.
Turning to `O=C(Cc1cccc(OC(F)(F)F)c1)Nn1nc(N2CCOCC2)c2ccccc2c1=O` [Example 162, N-[4-(morpholin-4-yl)-1-oxophthalazin-2(1H)-yl]-2-[3-(trifluoromethoxy)phenyl]acetamide], the Emax is 87.4% and the EC50 is 1520 nM.
